Test results reported in patent US20260224460A1, “A PERSONAL CARE COMPOSITION” (Conopco, Inc., d/b/a UNILEVER, priority 2023, published 2026).

Test system: Collagen1 gene expression (COL1A1) in WS1 cells
Assay: Collagen1 (COL1A1) gene expression by real time PCR in WS1 human dermal fibroblasts
Assay type: cell-based
Details: Table 2 (lysine series), 24 hours treatment, actives in wt %, fold change vs untreated control (1.0), normalized to GAPDH

SMILES | Gene expression (Collagen1)
O=C(O)CCCCCCC(=O)O [Example J2, Suberic acid] | 2.8
NCCCC[C@H](N)C(=O)O [F, Lysine] | 0.8
O=C(O)CCCCCCCC(=O)O [Example K1, Azeleic acid] | 1.3
O=C(O)CCCCCCCC(=O)O [Example K3, Azeleic acid] | 2.0
COC(=O)CCCCCC(=O)OC [Example H1, Dimethyl pimelate] | 1.2
O=C(O)CCCCCC(=O)O [Example G3, Pimelic acid] | 3.0
O=C(O)CCCCCC(=O)O [Example G1, Pimelic acid] | 1.1
O=C(O)CCCCCCCC(=O)O [Example K2, Azeleic acid] | 1.6
COC(=O)CCCCCC(=O)OC [Example H2, Dimethyl pimelate] | 2.4
O=C(O)CCCCCCC(=O)O [Example J1, Suberic acid] | 1.7
O=C(O)CCCCCC(=O)O [Example G2, Pimelic acid] | 2.4
COC(=O)CCCCCC(=O)OC [Example H3, Dimethyl pimelate] | 3.7
O=C(O)CCCCCCC(=O)O [Example J3, Suberic acid] | 1.4

Same assay, conditions: Table 3 (additional weight ratios 2:1, 4:1, 25:1), 24 hours treatment, actives in wt %, fold change vs untreated control (1.0), normalized to GAPDH

SMILES | Gene expression (Collagen1)
O=C(O)CCCCCCCC(=O)O [Example P1, Azelaic acid] | 1.7
COC(=O)CCCCCC(=O)OC [Example N1, Dimethyl pimelate] | 2.2
N=C(N)NCCCC(N)C(=O)O (centres unmarked) [Example L1, Arginine] | 1.5
O=C(O)CCCCCC(=O)O [Example M3, Pimelic acid] | 2.7
O=C(O)CCCCCCCC(=O)O [Example P2, Azelaic acid] | 2.4
COC(=O)CCCCCC(=O)OC [Example N2, Dimethyl pimelate] | 3.5
O=C(O)CCCCCCC(=O)O [Example O2, Suberic acid] | 3.7
O=C(O)CCCCCCC(=O)O [Example O1, Suberic acid] | 2.7
O=C(O)CCCCCCCC(=O)O [Example P3, Azelaic acid] | 1.6
N=C(N)NCCCC(N)C(=O)O (centres unmarked) [Example L3, Arginine] | 4.4
O=C(O)CCCCCC(=O)O [Example M1, Pimelic acid] | 3.0
O=C(O)CCCCCCC(=O)O [Example O3, Suberic acid] | 2.5
N=C(N)NCCCC(N)C(=O)O (centres unmarked) [Example L2, Arginine] | 3.3
O=C(O)CCCCCC(=O)O [Example M2, Pimelic acid] | 3.9
COC(=O)CCCCCC(=O)OC [Example N3, Dimethyl pimelate] | 2.5

Test system: Collagen1 gene expression (COL1A1) in WS1 cells
Assay: as above
Assay type: cell-based
Details: Table 1, 24 hours treatment, actives in wt %, fold change vs untreated control (1.0), normalized to GAPDH, delta delta Ct
Experimental: Experiments were carried out to study gene expression of Collagen1 with actives as shown in Table-1 individually and in combination and the data is 12ummarized therein. The methodology used to measure the gene expression is given below:
WS1 cells (human dermal fibroblasts) were grown and maintained in high glucose DMEM (HIMEDIA cat No AL219A) supplemented with 0.03 mM Calcium chloride, 1 mM sodium pyruvate and 10% FBS (Fetal Bovine Serum) at 37° C. with 5% CO2. 80% confluent cells were trypsinized and plated in 24 well plate at a density of 50,000 cells/well. The cells were incubated at 37° C. with 5% CO2 for 24 hours. Post incubation, the cells were treated with arginine (0.005%) and varying concentration of pimelic acid, dimethyl pimelate, suberic acid. Azelaic acid (0.0001, 0.001, 0.005%). 24 hours after treatment the cells were harvested for RNA extraction. RNA was extracted using Qiagen RNA extraction kit (Cat No: 74004) as per the instructions given in the kit. After extraction of RNA, cDNA synthesis was done using iscript cDNA synthesis kit (Biorad Cat no: 1708890). […] of RNA was used for cDNA synthesis. cDNA template synthesized was used for gene expression studies.
Quantification of collagen gene expression was carried out using real time PCR. […] of cDNA was used for setting up the reaction. The PCR reaction mix had […] each of forward and reverse primer, […] of PCR master mix (Sigma Cat No: KCQS00). Amplification was carried out at 95° C. for 30 seconds as the first step, followed by 40 cycles of qRT-PCR at 95° C. for 5 seconds, and at 60° C. for 20 seconds. mRNA expression was measured in triplicate and was normalized to GAPDH (glyceraldehyde 3-phosphate dehydrogenase) expression levels. The relative quantification was done using delta delta Ct method. The primers used in the study are COL1A1 forward primer 5′-[…]-3′, COL1A1 reverse primer 5′-[…]-3′, GAPDH forward primer 5′-[…]-3′, reverse primer 5′-[…]-3′. The relative quantification of gene expression was done after normalization using house keeping gene (GAPDH) and comparing with untreated control.
The fold change of gene ‘expression obtaine’ from cells treated with’ combination of test actives were compared with the gene expression obtained from cells treated with individual ingredients.

SMILES | Gene expression (Collagen1)
O=C(O)CCCCCC(=O)O [Example B2, Pimelic acid] | 2.8
O=C(O)CCCCCCCC(=O)O [Example E3, Azeleic acid] | 1.9
O=C(O)CCCCCC(=O)O [Example B1, Pimelic acid] | 1.1
O=C(O)CCCCCCC(=O)O [Example D1, Suberic acid] | 1.6
COC(=O)CCCCCC(=O)OC [Example C2, Dimethyl pimelate] | 2.5
COC(=O)CCCCCC(=O)OC [Example C1, Dimethyl pimelate] | 1.2
O=C(O)CCCCCCCC(=O)O [Example E1, Azeleic acid] | 1.4
O=C(O)CCCCCC(=O)O [Example B3, Pimelic acid] | 3.2
COC(=O)CCCCCC(=O)OC [Example C3, Dimethyl pimelate] | 3.8
O=C(O)CCCCCCC(=O)O [Example D3, Suberic acid] | 1.3
O=C(O)CCCCCCC(=O)O [Example D2, Suberic acid] | 2.9
N=C(N)NCCCC(N)C(=O)O (centres unmarked) [Example A, Arginine] | 1.9
O=C(O)CCCCCCCC(=O)O [Example E2, Azeleic acid] | 1.6
